Assay results reported in US20240390335A1, “PHARMACEUTICAL COMPOSITION CONTAINING BETA-LACTAM COMPOUND AND USE THEREOF” (priority 2021, published 2024).
In brackets after ≈: the same amount, converted by molar mass. Read-outs that look alike come from different tables or passages of the source. Peptide text beside a SMILES is read from it. * marks the point of attachment. βNA = c1ccc2cc(N*)ccc2c1

What was measured:
Type in all cases: cell-based
[1] = system: drug-resistant Enterobacteriaceae; assay: MIC assay of individual compounds, summary over Enterobacteriaceae strains; details: against the aforementioned Enterobacteriaceae
Protocol: (§1) Mueller-Hinton broth (MH broth) medium, Trypticase Soy Broth (TSB Broth) medium, purchased from BD Difco, Cockeysville, MD, USA; • 96-well plate: Corning Costar, Cambridge, MA, USA; • Test method: the antibacterial activities were tested by the microdilution method according to the CLSI/NCCLS standard.
(§2) (1) Preparation of the test samples: 4 mg of each sample was taken, and was prepared into a test solution at 1,024 μg/mL with MH broth, and the test solution was diluted two-fold in a 96-well plate to prepare solutions of a series of gradient concentrations, the volume in each well being 90 μL.
(§3) (2) Preparation of a bacteria solution: The test strains were amplified by Trypticase Soy Broth (TSB Broth) according to the CLSI/NCCLS standard.
(§4) (3) Addition of the samples: a bacteria solution with a concentration of 6×10^5 cfu/mL was prepared, and 10 μL of the bacteria solution was pipetted into each well of the 96-well plate. Three parallel experiments were set up for each concentration and the results were averaged. To the negative control group, 10 μL of the bacterial solution and 90 μL MH broth were added.
(§5) (4) Incubation: the 96-well plate was placed in a 37° C. constant-temperature incubator for 18 hours, and the growth of the strains was observed. The drug concentration in the well with no microbial growth was recorded as the MIC.

[2] = system: Klebsiella pneumoniae; assay: Combined in vitro use, checkerboard dilution method
Protocol: (§6) Mueller-Hinton broth (MH broth) medium, Trypticase Soy Broth (TSB Broth) medium, purchased from BD Difco, Cockeysville, MD, USA; • 96-well plate: Corning Costar, Cambridge, MA, USA; • Test method: the checkerboard dilution method was used for determination.
(§7) (1) Preparation of the test samples: 4 mg of each sample was taken and was prepared into a test solution at 2,048 μg/mL with MH broth, and the test solution was diluted two-fold in a 96-well plate to prepare solutions of a series of gradient concentrations.
as §3
(§8) (3) Addition of the samples: 10 μL of the bacteria solution with a concentration of 6×10^5 CFU/mL was pipetted into each well of the 96-well plate. Each well contained the antibacterial drugs (the compound of formula (I-1) and the compound of formula (I-2)) diluted two-fold with broth and the aforementioned lactamase inhibitor or efflux pump inhibitor. […] The samples were mixed thoroughly. Three parallel experiments were set up for each concentration and the results were averaged. To the negative control group, 10 μL of the bacterial solution and 90 μL MH broth were added.
(§9) (4) Incubation: the 96-well plate was placed in a 37° C. constant-temperature incubator for 18 hours, and the growth of the strains was observed.
(§10) (5) Calculation: The in vitro effect of each drug-inhibitor combination was analyzed by calculating the FICI value: FICI=(MIC of drug A in the combination/MIC of drug A alone)+ (MIC of drug B in the combination/MIC of drug B alone).
(§11) In order to ensure the reliability of the data, three repeated tests were conducted on different dates and the results were averaged.

[3] = system: Enterobacter cloacae; assay: MIC assay of individual compounds (microdilution, CLSI/NCCLS)
Protocol: as §1, §2, §3, §4, §5

[4] = system: Escherichia coli; assay: as above
Protocol: as §1, §2, §3, §4, §5

[5] = system: Klebsiella pneumoniae; assay: as above
Protocol: as §1, §2, §3, §4, §5

[6] = system: Acinetobacter baumannii or Pseudomonas aeruginosa; assay: MIC assay of individual compounds, summary over non-fermenter strains; details: various Acinetobacter baumannii or Pseudomonas aeruginosa strains
Protocol: as §1, §2, §3, §4, §5

[7] = system: Acinetobacter baumannii; assay: Combined in vitro use, checkerboard dilution method
Protocol: as §6, §7, §3, §8, §9, §10, §11

[8] = system: Pseudomonas aeruginosa; assay: MIC assay of individual compounds (microdilution, CLSI/NCCLS)
Protocol: as §1, §2, §3, §4, §5

[9] = system: Acinetobacter baumannii; assay: as above
Protocol: as §1, §2, §3, §4, §5

[10] = system: Escherichia coli; assay: Combined in vitro use, checkerboard dilution method; details: compound of formula (I-1) combined with vaborbactam; Escherichia coli CCPM(A)-P-071301
Protocol: as §6, §7, §3, §8, §9, §10, §11

[11] = system: Pseudomonas aeruginosa; assay: as above
Protocol: as §6, §7, §3, §8, §9, §10, §11

[12] = system: drug-resistant Enterobacteriaceae strains; assay: Checkerboard combination, summary over Enterobacteriaceae strains; details: combined with avibactam; all of the 4 drug-resistant Enterobacteriaceae strains tested
Protocol: as §6, §7, §3
as §8, with “To the negative control group, 10 μL of the bacterial solution and 90 μL MH broth were added.” left out
(5) Calculation: The in vitro effect of each drug-inhibitor combination was analyzed by calculating the FICI value: FICI=(MIC of drug A in the combination/MIC of drug A alone)+ (MIC of drug B in the combination/MIC of drug B alone). […]

[13] = ATCC2468, individual compound, Enterobacter cloacae ATCC 2468, read-out: MIC
[14] = ATCC2469, individual compound, Escherichia coli ATCC 2469, read-out: MIC
[15] = individual compound, Escherichia coli CCPM(A)-P-071301, read-out: MIC
[16] = Klebsiella pneumoniae, ATCC2146, individual compound, Klebsiella pneumoniae ATCC 2146, read-out: MIC
[17] = Klebsiella pneumoniae, ATCC700603, individual compound, Klebsiella pneumoniae ATCC 700603, read-out: MIC
[18] = Klebsiella pneumoniae, individual compound, Klebsiella pneumoniae CCPM(A)-0814R18, read-out: MIC
[19] = Klebsiella pneumoniae, individual compound, Klebsiella pneumoniae CCPM(A)-0814R33, read-out: MIC
[20] = Klebsiella pneumoniae, individual compound, Klebsiella pneumoniae CCPM(A)-081301, read-out: MIC
[21] = Klebsiella pneumoniae, individual compound, Klebsiella pneumoniae CCPM(A)-081715, read-out: MIC
[22] = Klebsiella pneumoniae, individual compound, Klebsiella pneumoniae CCPM(A)-081716, read-out: MIC
[23] = individual compound, Pseudomonas aeruginosa PAO1(CCPM(A)-P-09000032), read-out: MIC
[24] = ATCC17978, individual compound, Acinetobacter baumannii ATCC 17978, read-out: MIC
[25] = ATCC19606, individual compound, Acinetobacter baumannii ATCC 19606, read-out: MIC

SMILES: O=C(NC1CCNCC1)[C@@H]1CC[C@@H]2CN1C(=O)N2OS(=O)(=O)O [Relebactam, relebactam]
- activity of the inhibitor itself [1]: relatively weak activities
- MIC in combination ([2]; compound of formula (I-1) combined with relebactam, Klebsiella pneumoniae ATCC 2146): 0.5 µg/mL
- MIC in combination ([2]; compound of formula (I-1) combined with relebactam, Klebsiella pneumoniae ATCC 700603): 8 µg/mL
- MIC [3, 13]: 128 µg/mL (≈ 367 µM)
- MIC ([3]; individual compound, Enterobacter cloacae CCPM(A)-P-111719, read-out: MIC): 128 µg/mL (≈ 367 µM)
- MIC [4, 14]: 64 µg/mL (≈ 184 µM)
- MIC [4, 15]: 64 µg/mL (≈ 184 µM)
- MIC [5, 16]: 64 µg/mL (≈ 184 µM)
- MIC [5, 17]: 64 µg/mL (≈ 184 µM)
- MIC [5, 18]: 64 µg/mL (≈ 184 µM)
- MIC [5, 19]: 64 µg/mL (≈ 184 µM)
- MIC [5, 20]: > 128 µg/mL
- MIC [5, 21]: 64 µg/mL (≈ 184 µM)
- MIC [5, 22]: 128 µg/mL (≈ 367 µM)

SMILES: COc1ccc2cc3[n+](cc2c1OC)CCc1cc2c(cc1-3)OCO2 [Berberine, berberine]
- activity of the inhibitor itself [6]: relatively weak activities
- MIC in combination ([7]; compound of formula (I-1) combined with berberine, Acinetobacter baumannii ATCC 19606): 32 µg/mL
- MIC in combination ([7]; compound of formula (I-1) combined with berberine, Acinetobacter baumannii CCPM(A)-P-101633(CRAB)): >0.5 µg/mL
- MIC ([8]; individual compound, Pseudomonas aeruginosa ATCC27853, read-out: MIC): > 1020 µg/mL
- MIC ([8]; individual compound, Pseudomonas aeruginosa CCPM(A)-P-091626(CRPA), read-out: MIC): > 1020 µg/mL
- MIC [8, 23]: > 1020 µg/mL
- MIC [9, 24]: > 1020 µg/mL
- MIC [9, 25]: > 1020 µg/mL
- MIC ([9]; individual compound, Acinetobacter baumannii CCPM(A)-P-101633(CRAB), read-out: MIC): > 1020 µg/mL

SMILES: O=C(O)C[C@@H]1CC[C@H](NC(=O)Cc2cccs2)B(O)O1 [Vaborbactam, vaborbactam]
- activity of the inhibitor itself [1]: relatively weak activities
- MIC in combination [10]: 0.5 µg/mL
- MIC in combination ([2]; compound of formula (I-1) combined with vaborbactam, Klebsiella pneumoniae ATCC 700603): 8 µg/mL
- MIC in combination ([2]; compound of formula (I-1) combined with vaborbactam, Klebsiella pneumoniae CCPM(A)-0814R33): 2 µg/mL
- MIC ([3]; Enterobacter cloacae): > 128 µg/mL
- MIC ([3]; Enterobacter cloacae, ATCC2468): > 128 µg/mL
- MIC ([4]; Escherichia coli): > 128 µg/mL
- MIC ([4]; Escherichia coli, ATCC2469): > 128 µg/mL
- MIC ([5]; Klebsiella pneumoniae): > 128 µg/mL
- MIC ([5]; Klebsiella pneumoniae, ATCC2146): > 128 µg/mL
- MIC ([5]; Klebsiella pneumoniae, ATCC700603): > 128 µg/mL
- MIC ([5]; individual compound, Klebsiella pneumoniae CCPM(A)-0814R33): >128 µg/mL
- MIC ([5]; individual compound, Klebsiella pneumoniae CCPM(A)-081301): >128 µg/mL
- MIC ([5]; individual compound, Klebsiella pneumoniae CCPM(A)-081715): >128 µg/mL
- MIC ([5]; individual compound, Klebsiella pneumoniae CCPM(A)-081716): >128 µg/mL

SMILES: C[C@H]1[C@H]2CC[C@H]3[C@@H]4CC=C5C[C@@H](N(C)C)CC[C@]5(C)[C@H]4CC[C@]23CN1C [Conessine, conessine]
- activity of the inhibitor itself [6]: relatively weak activities
- MIC in combination ([11]; compound of formula (I-1) combined with conessine, Pseudomonas aeruginosa PAO1(CCPM(A)-P-09000032)): >256 µg/mL
- MIC in combination ([7]; compound of formula (I-1) combined with conessine, Acinetobacter baumannii ATCC 19606): 4 µg/mL
- MIC [8, 23]: > 256 µg/mL
- MIC [9, 25]: > 256 µg/mL

SMILES: N=C(N)NCCC[C@H](NC(=O)[C@@H](N)Cc1ccccc1)C(=O)Nc1ccc2ccccc2c1 [PAβN, PaβN] (H-Phe-Arg-βNA)
- activity of the inhibitor itself [6]: relatively weak activities
- MIC in combination ([11]; compound of formula (I-1) combined with PAβN, Pseudomonas aeruginosa ATCC27853): 64 µg/mL
- MIC in combination ([11]; compound of formula (I-1) combined with PAβN, Pseudomonas aeruginosa CCPM(A)-P-091626(CRPA)): 128 µg/mL
- MIC in combination ([11]; compound of formula (I-1) combined with PAβN, Pseudomonas aeruginosa PAO1(CCPM(A)-P-09000032)): 64 µg/mL
- MIC in combination ([7]; compound of formula (I-1) combined with PAβN, Acinetobacter baumannii CCPM(A)-P-101633(CRAB)): >0.5 µg/mL
- MIC ([8]; Pseudomonas aeruginosa): > 256 µg/mL
- MIC ([8]; Pseudomonas aeruginosa, ATCC27853): > 256 µg/mL
- MIC ([8]; Pseudomonas aeruginosa, PAO1): > 256 µg/mL
- MIC [9, 24]: > 256 µg/mL
- MIC [9, 25]: > 256 µg/mL
- MIC ([9]; Acinetobacter baumannii): > 256 µg/mL

SMILES: CC1(C)[C@H](NC(=O)/C(=N\OC2(C(=O)O)CCC2)c2csc(N)n2)C(=O)N1OS(=O)(=O)O [Compound of formula (I-2)]
- MIC in combination ([2]; compound of formula (I-2) combined with avibactam, Klebsiella pneumoniae ATCC 2146): 0.5 µg/mL
- MIC in combination ([2]; compound of formula (I-2) combined with avibactam, Klebsiella pneumoniae ATCC 700603): 0.5 µg/mL
- MIC in combination ([2]; compound of formula (I-2) combined with avibactam, Klebsiella pneumoniae CCPM(A)-081715): 0.5 µg/mL
- MIC in combination ([2]; compound of formula (I-2) combined with avibactam, Klebsiella pneumoniae CCPM(A)-081729): 0.5 µg/mL
- MIC [3, 13]: 2 µg/mL
- MIC [4, 14]: 1 µg/mL
- MIC [4, 15]: 1 µg/mL
- MIC [5, 16]: 2 µg/mL
- MIC [5, 17]: 2 µg/mL
- MIC [5, 18]: 2 µg/mL
- MIC [5, 19]: 2 µg/mL
- MIC ([5]; Klebsiella pneumoniae, individual compound, Klebsiella pneumoniae CCPM(A)-0817R61, read-out: MIC): 32 µg/mL
- MIC [5, 20]: 2 µg/mL
- MIC ([5]; Klebsiella pneumoniae, individual compound, Klebsiella pneumoniae CCPM(A)-081705, read-out: MIC): 2 µg/mL
- MIC [5, 21]: 1 µg/mL
- MIC [5, 22]: 32 µg/mL
- MIC ([5]; Klebsiella pneumoniae, individual compound, Klebsiella pneumoniae CCPM(A)-081729, read-out: MIC): 1 µg/mL
- change of MIC values on combination [12]: significantly reduced
